Source: patent publication US8637525B2, “Compounds for the reduction of beta-amyloid production” (Bristol-Myers Squibb Company, priority 2009, dated 2014)
Read-outs that look alike come from different tables or passages of the source.

System: Aβ1-42 production
Assay: Cellular assay for inhibition of Aβ1-42 production (H4 APP751 SWE clone 8.20)
Type: cell-based
Details: H4 APP751 SWE clone 8.20 cells, 19 h incubation
Description: Cellular Assays for Inhibition of Aβ1-40 and Aβ1-42 Production
H4 cells stably transfected with APP751 containing the Swedish mutation (H4 APP751 SWE clone 8.20, developed at BMS) were maintained in log phase through twice weekly passage at a 1:20 split. […] Following incubation for 19 h in 5% CO2 at 37° C., plates were briefly centrifuged (1000 rpm, 5 min). A 10 μl aliquot from each well was transferred to a second assay plate (Costar 3709) for Aβ40 measurements. Antibody cocktails were freshly prepared by dilution into 40 mM Tris-HCl (pH 7.4) with 0.2% BSA and added to assay plates. For Aβ42 measurements, antibodies specific for the Aβ42 neoepitope (565, developed at BMS; conjugated to the Wallac reagent (Perkin Elmer)) and the N-terminal sequence of Aβ peptide (26D6, developed at SIBIA; conjugated to APC (Perkin Elmer)) were mixed and 20 μl of the mixture was added to each well of the incubated cell plate yielding a final concentration of 0.8 ng/well 565 and 75 ng/well 26D6. For the Aβ40 measurements, antibodies specific for the Aβ40 neoepitope (TSD, developed at BMS; conjugated to the Wallac reagent (Perkin Elmer)) and 26D6 as described above were mixed and 20 μl of the mixture was added to the 10 μl aliquots which had been removed previously from the cell plate yielding a final concentration of 1.6 ng/well TSD and 17.5 ng/well 26D6. Assay plates containing antibodies were sealed with aluminum foil and incubated overnight at 4° C. Signal was determined using a Viewlux counter (Perkin Elmer) and IC50 values determined using curve fitting in CurveMaster (Excel Fit based).

[1] = 19 h, class symbols, read-out: Activity Rating (Aβ42 cellular IC50)
[2] = 19 h, read-out: Activity Rating (Aβ42 cellular IC50), numeric value

`CNc1nc(Nc2ccc(-n3ncnc3C)c(OC)c2)nc2c1CC[C@@H]2c1ccc(F)cc1` [Example 264B, (R)-7-(4-fluorophenyl)-N2-(3-methoxy-4-(5-methyl-1H-1,2,4-triazol-1-yl)phenyl)-N4-methyl-6,7-dihydro-5H-cyclopenta[d]pyrimidine-2,4-diamine] gave an IC50 [1] of 10 to 100 nM.
In the case of `COc1cc(Nc2nc3c(c(N(C)S(C)(=O)=O)n2)CCC3c2ccccc2)ccc1-n1cnc(Cl)c1` (centres unmarked) [Example 210, N-(2-(4-(4-chloro-1H-imidazol-1-yl)-3-methoxyphenylamino)-7-phenyl-6,7-dihydro-5H-cyclopenta[d]pyrimidin-4-yl)-N-methylmethanesulfonamide], the IC50 [2] is reported as 61 nM.
`CNc1nc(Nc2ccc(-n3cnc(Cl)c3)c(OC)c2)nc2c1CCC2c1ccc(F)cc1` (single isomer, unassigned) [Example 11B, N^2-(4-(4-Chloro-1H-imidazol-1-yl)-3-methoxyphenyl)-7-(4-fluorophenyl)-N^4-methyl-6,7-dihydro-5H-cyclopenta[d]pyrimidine-2,4-diamine] showed an IC50 [1] of 1.5 to 9.9 nM.
For `CCNc1nc(Nc2ccc(-n3cnc(Cl)c3)c(OC)c2)nc2c1CN(S(=O)(=O)C1CC1)CC2c1ccccc1` (centres unmarked) [Example 136, N2-(4-(4-chloro-1H-imidazol-1-yl)-3-methoxyphenyl)-6-(cyclopropylsulfonyl)-N4-ethyl-8-phenyl-5,6,7,8-tetrahydropyrido[4,3-d]pyrimidine-2,4-diamine], the IC50 [1] was 1.5 to 9.9 nM.
`COCC(Nc1nc(Nc2ccc(-n3cnc(Cl)c3)c(OC)c2)nc2c1CCC2c1ccc(F)cc1)C1CC1` (single isomer, unassigned) [Example 45D, N2-(4-(4-chloro-1H-imidazol-1-yl)-3-methoxyphenyl)-N4-(1-cyclopropyl-2-methoxyethyl)-7-(4-fluorophenyl)-6,7-dihydro-5H-cyclopenta[d]pyrimidine-2,4-diamine] gave an IC50 (class symbols, read-out: Activity Rating (Aβ42 cellular IC50)) of 1.5 to 9.9 nM.
Work on `CCNc1nc(Nc2ccc(-n3cnc(Cl)c3)c(OC)c2)nc2c1COCC2c1ccc(C#N)cc1` (centres unmarked) [Example 121B, 4-(2-(4-(4-chloro-1H-imidazol-1-yl)-3-methoxyphenylamino)-4-(ethylamino)-7,8-dihydro-5H-pyrano[4,3-d]pyrimidin-8-yl)benzonitrile] yielded an IC50 [2] of 120 nM.
Work on `COc1cc(Nc2nc3c(c(N4CC(F)(F)C4)n2)COCC3c2ccc(F)cc2)ccc1-n1cnc(Cl)c1` (racemic) [Example 63, N-(4-(4-chloro-1H-imidazol-1-yl)-3-methoxyphenyl)-4-(3,3-difluoroazetidin-1-yl)-8-(4-fluorophenyl)-7,8-dihydro-5H-pyrano[4,3-d]pyrimidin-2-amine] yielded an IC50 [1] of 10 to 100 nM.
With `CCN(C)c1nc(Nc2ccc(-n3cnc(Cl)c3)c(OC)c2)nc2c1COCC2c1ccc(F)cc1` (centres unmarked) [Example 62A, N2-(4-(4-chloro-1H-imidazol-1-yl)-3-methoxyphenyl)-N4-ethyl-8-(4-fluorophenyl)-N4-methyl-7,8-dihydro-5H-pyrano[4,3-d]pyrimidine-2,4-diamine] the IC50 [1] was 1.5 to 9.9 nM.
In the case of `CCNc1nc(Nc2ccc(-n3cnc(Cl)c3)c(OC)c2)nc2c1CCN(C(C)=O)C2c1ccc(F)cc1` (centres unmarked) [Example 171, 1-(2-(4-(4-chloro-1H-imidazol-1-yl)-3-methoxyphenylamino)-4-(ethylamino)-8-(4-fluorophenyl)-5,6-dihydropyrido[3,4-d]pyrimidin-7(8H)-yl)ethanone], the IC50 [2] is reported as 16 nM.
Work on `CCNc1nc(Nc2ccc(-n3ncnc3C)c(F)c2)nc2c1CN(C(=O)C1CC1)CC2c1ccccc1` (centres unmarked) [Example 144B, cyclopropyl(4-(ethylamino)-2-(3-fluoro-4-(5-methyl-1H-1,2,4-triazol-1-yl)phenylamino)-8-phenyl-7,8-dihydropyrido[4,3-d]pyrimidin-6(5H)-yl)methanone] yielded an IC50 [2] of 540 nM.
For `COc1cc(Nc2nc3c(c(N(C)C)n2)CCC3c2ccc(F)c(F)c2)ccc1-n1cnc(Cl)c1` (racemic) [Example 95, N^2-(4-(4-Chloro-1H-imidazol-1-yl)-3-methoxyphenyl)-7-(3,4-difluorophenyl)-N^4,N^4-dimethyl-6,7-dihydro-5H-cyclopenta[d]pyrimidine-2,4-diamine], the IC50 [1] was 1.5 to 9.9 nM.
